Assay results reported in PubChem BioAssay AID652241 (Broad Institute, 2013).
Records with an inconclusive call do not appear. The source made the active and inactive calls.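 How the source made its calls: active means fitted curve reaches activity 50 in the expected rising direction at or below the top valid tested dose; inconclusive means no clear call, values can overlap the other calls; inactive means activity in the wrong direction, and the rest.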

Molecular target: Virion infectivity factor (Human immunodeficiency virus type 1 group M subtype B (isolate BH10)) + Virion infectivity factor (Human immunodeficiency virus type 1 group M subtype B (isolate BRU/LAI)) + Virion infectivity factor (Human immunodeficiency virus type 1 group M subtype B (isolate PCV12)) + Virion infectivity factor (Human immunodeficiency virus type 1 group M subtype B (isolate HXB2)) (UniProt P69720+P69721+P69722+P69723)
Assay: Vif multimerization inhibitor potency, dose response, imaging, HEK293T, cherry-picks (AID 652241);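 further: imaged cell signal that rises when Vif self-association is disrupted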
Details: 24 h

Row | Compound | activity, higher = inhibition (at 19.5 µM (top of the series)) | other results
1 | O=C(Nc1cnccn1)Nc1ccccc1Cl | inactive | 
2 | O=C1c2ccccc2C(Nc2ccc(S(=O)(=O)N3CCOCC3)cc2)N1c1ccccn1 (configuration not stated) | inactive | 
3 | COc1ccc(OC)c(/C=C/c2nc3ccccc3[nH]c2=O)c1 |  | activity, higher = inhibition (at 6.8 µM (top of the series)): inactive
4 | Cc1cc(C(=O)Nc2c(F)c(F)c(F)c(F)c2F)n(-c2ccccc2)n1 | inactive | 
5 | COc1ccc(CNC(=O)CN2C(=O)NC(c3ccccc3)(c3ccccc3)C2=O)cc1 | inactive | 
6 | COc1cccc(NC(=O)c2cc(C(=O)Nc3cccc(OC)c3)n(C)n2)c1 | inactive | 
7 | CCOC(=O)Nc1ccc(NCc2ccc(F)cc2)nc1N | inactive | 
8 | COc1ccc(CNC(=O)Nc2cccs2)cc1OC | inactive | 
9 | Cc1cc(-c2nnc(SCC(=O)c3ccc(Cl)cc3)o2)no1 | inactive | 
10 | CCCCOc1cccc2c(=O)n(CC(=O)Nc3ccc4c(c3)OCCO4)ccc12 | inactive | 
11 | O=C(Nc1ccc(-c2nc3ccc(NC(=O)c4cccs4)cc3[nH]2)cc1)c1cccs1 |  | AC50: 3.89 µM
12 | COc1ccc(CCNc2nnc(Sc3nnnn3-c3ccccc3)s2)cc1OC |  | AC50: 5.92 µM
13 | CCOC(=O)C1=C(C)NC(=O)NC1 | inactive | 
14 | Cc1ccc(C(=O)NC(CCc2ccccc2)C(=O)O)cc1 (configuration not stated) | inactive | 
15 | COc1ccc(N=C2NC(=O)S/C2=C\c2ccc(N(C)C)cc2)cc1 | inactive | 
16 | CC(C)CCNC(=O)CCc1nnc(COc2ccccc2)o1 | inactive | 
17 | Cc1ccc(NC(=O)/C=C/C(=O)O)c(NC(=O)c2ccccc2)c1 | inactive | 
18 | CC(C)OCCCNc1ncnc2c1[nH]c1ccc(F)cc12 | inactive | 
19 | CN1CCc2c(sc(NC(=O)c3cc(Cl)sc3Cl)c2C(N)=O)C1 | inactive | 
20 | CCc1nnc(NC(=O)c2sc3nc4cc(C)ccc4cc3c2N)s1 |  | activity, higher = inhibition (at 6.8 µM (top of the series)): inactive
21 | COc1cc(C(C)=O)ccc1OCC(=O)NCC1(N2CCCCC2)CCCCC1 | inactive | 

Row | Compound | activity, higher = inhibition (at 19.5 µM (top of the series)) | other results
22 | CCN1C(=O)NC(c2ccccc2)C1=O (configuration not stated) | inactive | 
23 | CCNC(=O)[C@H]1O[C@@H](n2cnc3c(N)nc(NCCc4ccc(CCC(=O)O)cc4)nc32)[C@H](O)[C@@H]1O | inactive | 
24 | COc1ccc(S(=O)(=O)N2c3cc(Cl)ccc3Oc3nc4ccccc4nc32)cc1 |  | AC50: 3.14 µM
25 | CCCN1C(=O)/C(=C\C=C2\N(CC)c3ccccc3C2(C)C)SC1=S |  | activity, higher = inhibition (at 6.8 µM (top of the series)): inactive
26 | CCN1c2ccccc2NC2C1C(C(C)=O)C(=O)N2c1ccc(Cl)cc1 (configuration not stated) | inactive | 
27 | Cc1ccc(-n2c(SCC(=O)Nc3ccc4c(c3)OCO4)nnc2-c2cccs2)cc1 | inactive | 
28 | COc1ccccc1C1C2=C(COC2=O)Nc2cc3c(cc21)OCO3 (configuration not stated) |  | AC50: 1.99 µM
29 | COc1ccc(CC(NC(C)=O)C(=O)NC2CCN(C(=O)c3ccccc3F)CC2)cc1 (configuration not stated) | inactive | 
30 | CCn1cc(CN2CCCC(C(=O)Nc3cccc(-c4cc5ccccc5[nH]4)c3)C2)c(C)n1 (configuration not stated) | inactive | 
31 | CCOC(=O)Cc1csc(NC(=O)CSc2nnnn2-c2ccc(CC)cc2)n1 | inactive | 
32 | CC(C)n1nc(C(=O)Nc2ccc(-n3cnnn3)cc2)c2ccccc2c1=O | inactive | 
33 | Cc1cc(NC(=O)CSc2nc3c(sc4ccccc43)c(=O)n2CCCN2CCOCC2)n[nH]1 |  | AC50: 7.05 µM
34 | O=C(/C=C/c1ccccc1)Nc1ncn[nH]1 |  | AC50: 19.5 µM
35 | COc1ccc(S(=O)(=O)Nc2cc3c(C(C)=O)c(C)oc3c3ccccc23)cc1 |  | AC50: 9.23 µM
36 | Cc1cc(N2CCN(S(=O)(=O)c3ccc(Cl)c(Cl)c3)CC2)c2ccccc2n1 | inactive | 
37 | O=C(Nc1cccc(-c2cc3ccccc3oc2=O)c1)c1ccc(Br)o1 | inactive | 
38 | O=C(CCN1CCOCC1)Nc1ccc(Cl)cc1 | inactive | 
39 | O=C(NNC(=O)c1cc2ccccc2oc1=O)c1ccccc1 | inactive | 
40 | Cc1cc(/C=C2\C(=N)N3C(SCc4ccccc4)=NSC3=NC2=O)c(C)n1Cc1ccccc1 | inactive | 
41 | C=CCn1c(O)c(C2=c3ccccc3=NC2=O)s/c1=N/c1nccs1 |  | AC50: > 19.5 µM (inactive)
42 | COc1cc(/C=C/C(=O)OCC(=O)N2CCCc3ccccc32)ccc1O | inactive | 

Row | Compound | activity, higher = inhibition (at 19.5 µM (top of the series)) | other results
43 | CC(=O)Nc1ccc(NC(=O)COc2ccccc2C(=O)Nc2cccc(Cl)c2Cl)cc1 |  | AC50: 5.9 µM
44 | COc1cc(-c2cnc3c(NC=O)cc(-c4ccccc4Cl)cn23)cc(OC)c1OC |  | AC50: 3.03 µM
45 | COc1ccc(-c2coc3cc(O)ccc3c2=O)cc1 | inactive | 
46 | Cc1nn(Cc2c(Cl)cccc2Cl)c(C)c1NC(=O)c1cnn2c(C(F)F)cc(-c3ccccc3)nc12 |  | AC50: 16.5 µM
47 | COc1ccccc1Nc1nnc(C)c(=O)[nH]1 | inactive | 
48 | CC(C)OC(=O)c1cn(-c2ccccc2)nc1-c1ccc2c(c1)OCCO2 | inactive | 
49 | O=C(O)c1ccc(-c2nc(-c3cccc(C(F)(F)F)c3)cs2)cc1 | inactive | 
50 | O=C(COC(=O)/C=C/C(=O)OCC(=O)Nc1ccccc1F)Nc1ccccc1F | inactive | 
51 | Cc1ccc(C(=O)COC(=O)c2cc(=O)[nH]c3ccccc23)cc1C | inactive | 
52 | CCN1CCN(c2cc(=O)n(-c3cc(Cl)ccc3C)c(=O)[nH]2)CC1 | inactive | 
53 | O=C(O)c1ccc(S(=O)(=O)c2ccc3c(c2)C(=O)N(c2ccc(Br)cc2)C3=O)cc1 | inactive | 
54 | COc1cccc(N2CCN(S(=O)(=O)c3cc4c(cc3C)N(C)CCO4)CC2)c1 | inactive | 
55 | COc1ccccc1-c1cccc2nccn12 | inactive | 
56 | CCc1ccc(S(=O)(=O)Nc2ccc(-c3ccc4nnc(C)n4n3)cc2)s1 |  | AC50: 11.4 µM
57 | CCc1cccc2cc3c(N)c(C(=O)Nc4ccc(S(=O)(=O)N5CCCC5)cc4)sc3nc12 |  | activity, higher = inhibition (at 6.8 µM (top of the series)): inactive
58 | CCN(CCCNC(=O)C1CCC(=O)N1Cc1ccc(C)cc1)c1cccc(C)c1 (configuration not stated) | inactive | 
59 | CCOC(=O)C1CCCN(C(=O)c2cc(S(=O)(=O)N(C)C)ccc2N2CCCC2)C1 (configuration not stated) | inactive | 
60 | COCc1cc(C)nc(SCC(=O)Nc2cccc3cccnc23)c1C#N | inactive | 
61 | NS(=O)(=O)c1ccc(-c2ccc(/C=C3\SC(=O)NC3=O)o2)cc1 | inactive | 
62 | N#Cc1c2ccc(OCC(N)=O)cc2n2ccccc12 | inactive | 
